Experiments:
[1] = tested on: MMP1 expression by SFs; experiment: 'MMP assay': MMP1 expression by 'complex trigger' activated synovial fibroblasts (MMP1 ELISA); format: cell-based, human; conditions: Homo sapiens, Fibroblast, RASFs, 48 hrs
[2] = target: T1, MAPKAPK5 (Homo sapiens, UniProt Q8IW41); experiment: MAPKAP-K5 assay (FlashPlate, 33P-ATP); format: biochemical; conditions: 0.6 μM ATP, 30 minutes at room temperature
T1 construct: 1 mU MAPKAP-K5
T1 sequence (Q8IW41 1-473): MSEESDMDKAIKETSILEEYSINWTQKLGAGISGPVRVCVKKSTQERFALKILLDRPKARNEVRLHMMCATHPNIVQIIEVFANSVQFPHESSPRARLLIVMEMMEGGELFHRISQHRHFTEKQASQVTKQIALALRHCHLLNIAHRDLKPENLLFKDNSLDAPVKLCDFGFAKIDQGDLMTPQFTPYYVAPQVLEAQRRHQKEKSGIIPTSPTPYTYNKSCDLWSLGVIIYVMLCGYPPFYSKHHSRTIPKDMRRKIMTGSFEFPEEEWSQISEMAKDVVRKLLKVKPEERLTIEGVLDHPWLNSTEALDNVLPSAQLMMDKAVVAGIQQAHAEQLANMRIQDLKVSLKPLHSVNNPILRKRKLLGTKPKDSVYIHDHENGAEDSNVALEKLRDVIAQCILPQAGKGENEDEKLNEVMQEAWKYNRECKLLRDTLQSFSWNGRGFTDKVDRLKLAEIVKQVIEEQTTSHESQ
Experimental: 3 μM MAPKAP-K5 peptide substrate

Compound | EC50 [1] [nM] | IC50 [2] [nM]
NC(=O)Cn1cc(-c2cnc(Nc3ccc(N4CCOCC4)cc3)c3nccn23)cn1 [Compound 24] | > 1000 | > 1000
CN1CCN(c2ccc(Nc3ncc(-c4ccnc(N)c4)n4ccnc34)cc2)CC1 [Compound 132, [5-(2-Amino-pyridin-4-yl)-imidazo[1,2-a]pyrazin-8-yl]-[4-(4-methyl-piperazin-1-yl)-phenyl]-amine] | > 1000 | > 1000
CCN(CC)CCNC(=O)c1ccc(Nc2ncc(-c3ccc(-c4nn[nH]n4)cc3)n3ccnc23)cc1 [Compound 60] | > 1000 | > 1000
CCN(CC)CCNC(=O)c1ccc(Nc2ncc(-c3cccs3)n3ccnc23)cc1 [Compound 78] | > 1000 | > 1000
CCN(CC)CCNC(=O)c1ccc(Nc2ncc(-c3ccc(C(=O)O)cc3)n3ccnc23)cc1 [Compound 47] | > 1000 | > 1000
Cc1n[nH]cc1-c1cnc(Nc2ccc(C3CCN(CC(N)=O)CC3)cc2)c2nccn12 [Compound 225, 2-(4-{4-[5-(3-Methyl-1H-pyrazol-4-yl)imidazo[1,2-a]pyrazin-8-ylamino]phenyl}piperidin-1-yl)acetamide] | > 1000 | 501 to 1000
CN1CCN(c2ccc(Nc3ncc(-c4ccc(C(N)=O)c(N(C)C)c4)n4ccnc34)cc2)CC1 [Compound 126, 2-Dimethylamino-4-{8-[4-(4-methyl-piperazin-1-yl)-phenylamino]-imidazo[1,2-a]pyrazin-5-yl}-benzamide] | > 1000 | > 1000
O=C(NCc1ccc(O)cc1)c1ccc(Nc2ncc(-c3cc[nH]c(=O)c3)n3ccnc23)cc1 [Compound 112] | 101 to 500 | 101 to 500
CCN(CC)CCNC(=O)c1ccc(Nc2ncc(-c3ccc(O)c(OC)c3)n3ccnc23)cc1 [Compound 65] | > 1000 | > 1000
NCc1cccc(CNC(=O)c2ccc(Nc3ncc(-c4cn[nH]c4)n4ccnc34)cc2)c1 [Compound 95] | 101 to 500 | > 1000
CCN(CC)CCNC(=O)c1cccc(Nc2ncc(-c3cn[nH]c3)n3ccnc23)c1 [Compound 50] | > 1000 | > 1000
CCN(CC)CCNC(=O)c1ccc(Nc2ncc(-c3n[nH]c(C)n3)n3ccnc23)cc1 [Compound 106] | > 1000 | > 1000
CCN(CC)CCNC(=O)c1ccc(Nc2ncc(-c3nc[nH]n3)n3ccnc23)cc1 [Compound 105] | > 1000 | > 1000
c1cn2c(-c3cn[nH]c3)cnc(Nc3ccc(N4CCOCC4)cn3)c2n1 [Compound 208, N-(5-Morpholinopyridin-2-yl)-5-(1H-pyrazol-4-yl)imidazo[1,2-a]pyrazin-8-amine] | > 1000 | > 1000
CCN(CC)CCNC(=O)c1ccc(Nc2ncc(-c3cn[nH]c3)n3ccnc23)c(C)c1 [Compound 58] | > 1000 | > 1000
CN1CCN(c2ccc(Nc3ncc(-c4ccc(C(=O)O)cc4)n4ccnc34)cc2)CC1 [Compound 43] | > 1000 | > 1000
NC(=O)c1cccc(Nc2ncc(-c3cn[nH]c3)n3ccnc23)c1 [Compound 10] | > 1000 | > 1000
CCN(CC)CCNC(=O)c1ccc(Nc2ncc(-c3ccc(O)cc3C(F)(F)F)n3ccnc23)cc1 [Compound 75] | > 1000 | > 1000
O=C(Nc1ccc(Nc2ncc(-c3cn[nH]c3)n3ccnc23)cn1)c1ccccc1 [Compound 183, N-{5-[5-(1H-Pyrazol-4-yl)imidazopyrazin-8-ylamino]pyridin-2-yl}benzamide] | 101 to 500 | > 1000
CCN(CCO)c1ccc(Nc2ncc(-c3ccc(C(N)=O)cc3)n3ccnc23)cc1 [Compound 4] | 101 to 500 | > 1000
c1cn2c(-c3nc[nH]n3)cnc(Nc3ccc(N4CCOCC4)cc3)c2n1 [Compound 91] | > 1000 | > 1000
NC(=O)c1ccc(-c2cnc(Nc3ccc(C(=O)NCc4cccnc4)cc3)c3nccn23)cc1 [Compound 104] | > 1000 | > 1000
CCN(CC)CCNC(=O)c1ccc(Nc2ncc(-c3ccoc3)n3ccnc23)cc1 [Compound 74] | > 1000 | > 1000
O=C(O)c1cccc(Nc2ncc(-c3cn[nH]c3)n3ccnc23)c1 [Compound 51] | > 1000 | > 1000
COc1cccc(Nc2ncc(-c3ccc(C(N)=O)cc3)n3ccnc23)c1 [Compound 19] | 501 to 1000 | > 1000
CCN(CCO)c1ccc(Nc2ncc(-c3cccc(C(N)=O)c3)n3ccnc23)cc1 [Compound 2] | > 1000 | > 1000
CCN(CC)CCNC(=O)c1ccc(Nc2ncc(C#N)n3ccnc23)cc1 [Compound 101] | > 1000 | > 1000

Compound | EC50 [1] [nM] | IC50 [2] [nM]
O=C(O)c1ccc(-c2cnc(Nc3ccc(C(=O)NCc4cccnc4)cc3)c3nccn23)cc1 [Compound 44] | > 1000 | > 1000
Nc1ccc(Nc2ncc(-c3cn[nH]c3)n3ccnc23)cc1 [Compound 15] | > 1000 | > 1000
NC(=O)c1ccc(-c2cnc(Nc3ccc(-n4cc(-c5ccccn5)nn4)cc3)c3nccn23)cc1 [Compound 154, 4-{8-[4-(4-Pyridin-2-yl-[1,2,3]triazol-1-yl)-phenylamino]-imidazo[1,2-a]pyrazin-5-yl}-benzamide] | 1 to 100 | > 1000
CCN(CC)CCNC(=O)c1ccc(Nc2ncc(-c3cn[nH]c3)n3ccnc23)cn1 [Compound 103, 5-[5-(1H-Pyrazol-4-yl)-imidazo[1,2-a]pyrazin-8-ylamino]-pyridine-2-carboxylic acid (2-diethylamino-ethyl)-amide] | > 1000 | 501 to 1000
Cc1cn2c(-c3cn[nH]c3)cnc(Nc3ccc(C(N)=O)cc3)c2n1 [Compound 92] | > 1000 | > 1000
CCN(CC)CCNC(=O)c1ccc(Nc2ncc(-c3cncnc3)n3ccnc23)cc1 [Compound 87] | > 1000 | > 1000
NC(=O)c1ccc(-c2cnc(Nc3ccc(-n4cncn4)cc3)c3nccn23)cc1 [Compound 134] | 101 to 500 | > 1000
CN1CCN(S(=O)(=O)c2ccc(Nc3ncc(-c4cn[nH]c4)n4ccnc34)cc2)CC1 [Compound 70] | > 1000 | > 1000
NC(=O)c1ccc(-c2cnc(Nc3ccc(N)cc3)c3nccn23)cc1 [Compound 18] | > 1000 | > 1000
NC(=O)c1ccc(-c2cnc(Nc3ccc(-n4ccc(C(F)(F)F)n4)cc3)c3nccn23)cc1 [Compound 133] | 101 to 500 | > 1000
c1cn2c(-c3ccc4[nH]ccc4c3)cnc(Nc3ccc(N4CCOCC4)cc3)c2n1 [Compound 21] | > 1000 | > 1000
CCN(CCO)c1ccc(Nc2ncc(-c3ccc(O)cc3)n3ccnc23)cc1 [Compound 5] | 101 to 500 | > 1000
NC(=O)c1nc(-c2cnc(Nc3ccc(N4CCOCC4)cc3)c3nccn23)cs1 [Compound 164] | > 1000 | > 1000
CC(C)N1CCC(c2ccc(Nc3ncc(-c4cn[nH]c4)n4ccnc34)cc2)CC1 [Compound 202, [4-(1-Isopropylpiperidin-4-yl)phenyl]-[5-(1H-pyrazol-4-yl)imidazo[1,2-a]pyrazin-8-yl]amine] | > 1000 | 101 to 500
NC(=O)c1ccc(Nc2ncc(-c3cn[nH]c3)n3ccnc23)nc1 [Compound 38] | > 1000 | > 1000
O=C(O)c1ccc(-c2cnc(Nc3ccc(C(=O)NCCN4CCOCC4)cc3)c3nccn23)cc1 [Compound 54] | > 1000 | > 1000
Cn1nnc(-c2ccc(Nc3ncc(-c4ccc(C(N)=O)cc4)n4ccnc34)cc2)n1 [Compound 170] | 101 to 500 | > 1000
COc1cc(Nc2ncc(-c3cn[nH]c3)n3ccnc23)ccc1C(=O)NCc1ccccc1 [Compound 182] | > 1000 | > 1000
N#Cc1ccc(Nc2ncc(-c3cn[nH]c3)n3ccnc23)cc1Cl [Compound 34] | 501 to 1000 | > 1000
O[C@H]1CC[C@H](Nc2ncc(-c3cn[nH]c3)n3ccnc23)CC1 [Compound 25] | > 1000 | > 1000
O=C1NCc2cc(-c3cnc(Nc4ccc(N5CCOCC5)nc4)c4nccn34)ccc21 [Compound 214] | > 1000 | 1 to 100
NC(=O)c1ccc(-c2cnc(Nc3cccnc3)c3nccn23)cc1 [Compound 96] | > 1000 | > 1000
CCN(CC)CCNC(=O)c1ccc(Nc2ncc(-c3ccsc3)n3ccnc23)cc1 [Compound 73] | > 1000 | > 1000
CC(C)N1CCN(c2ccc(Nc3ncc(-c4cc(F)c5c(c4)CNC5=O)n4ccnc34)cc2)CC1 [Compound 220, 7-Fluoro-5-{8-[4-(4-isopropyl-piperazin-1-yl)phenylamino]imidazo[1,2-a]pyrazin-5-yl}-2,3-dihydroisoindol-1-one] | > 1000 | 1 to 100
Cc1cc(Nc2ncc(-c3cn[nH]c3)n3ccnc23)ccc1C(N)=O [Compound 33] | > 1000 | > 1000
NC(=O)c1cc(-c2cnc(Nc3ccc(NC(=O)c4ccccc4)nc3)c3nccn23)cs1 [Compound 195] | > 1000 | > 1000
CCN(CC)CCNC(=O)c1ccc(Nc2ncc(-c3cn[nH]n3)n3ccnc23)cc1 [Compound 84] | > 1000 | 501 to 1000

From patent US8178530B2, “Imidazolopyrazine compounds useful for the treatment of degenerative and inflammatory diseases” (Janssen Pharmaceutica NV, priority 2006, dated 2012)
